# Activity calls are given as the source filed them. No cut-off for these calls is given here. Where a SMILES comes first, the peptide text is derived from it. [ ]: non-standard residue; d: D form. Aic = NC1(C(=O)O)Cc2ccccc2C1
# What was measured:
# HaCaT [1] = test: Cytotoxicity against human HaCaT cells at 50 uM after 24 hrs by MTT assay relative to control; format: cell-based
# HaCaT [2] = test: Cytotoxicity against human HaCaT cells at 25 uM after 24 hrs by MTT assay relative to control; format: cell-based
# Pseudomonas syringae = test: Antimicrobial activity against Pseudomonas syringae pv tabaci NCPPB 1918 after 18 to 20 hrs by microbroth dilution method; format: functional, Pseudomonas amygdali pv. tabaci
# Pichia kudriavzevii = test: Antimicrobial activity against Candida krusei ATCC 6258 after 18 to 20 hrs by microbroth dilution method; format: functional
# Acinetobacter baumannii [3] = test: Antimicrobial activity against Acinetobacter baumannii ATCC 19606 after 18 to 20 hrs by microbroth dilution method; format: functional; conditions: ATCC 19606 = CIP 70.34 = JCM 6841
# [4] = test system: Staphylococcus epidermidis; test: Antimicrobial activity against Staphylococcus epidermidis ATCC 12228 after 18 to 20 hrs by microbroth dilution method; format: functional
# Priestia megaterium = test: Antimicrobial activity against Bacillus megaterium Bm11 after 18 to 20 hrs by microbroth dilution method; format: functional
# HaCaT [5] = test: Cytotoxicity against human HaCaT cells at 1.56 to 6.25 uM after 24 hrs by MTT assay; format: cell-based
# HaCaT [6] = test: Cytotoxicity against human HaCaT cells at 12.5 uM after 24 hrs by MTT assay relative to control; format: cell-based
# Staphylococcus aureus = test: Antimicrobial activity against Staphylococcus aureus Cowan I after 18 to 20 hrs by microbroth dilution method; format: functional
# Pseudomonas aeruginosa = test: Antimicrobial activity against Pseudomonas aeruginosa ATCC 27853 after 18 to 20 hrs by microbroth dilution method; format: functional
# Candida albicans [7] = test: Antimicrobial activity against Candida albicans ATCC 10231 after 18 to 20 hrs by microbroth dilution method; format: functional
# Escherichia coli = test: Antimicrobial activity against Escherichia coli D21 after 18 to 20 hrs by microbroth dilution method; format: functional
# [8] = test system: Staphylococcus epidermidis; test: Antimicrobial activity against Staphylococcus epidermidis ATCC 12228 assessed as membrane-perturbation measured every minute for 120 mins by SYTOX green fluorescence dye influx assay; format: functional, organism-based
# Candida albicans [9] = test: Antimicrobial activity against Candida albicans ATCC 10231 assessed as induction of membrane-perturbation at MIC measured every minute for 10 mins by SYTOX green fluorescence dye influx assay; format: functional, organism-based
# Acinetobacter baumannii [10] = test: Antimicrobial activity against Acinetobacter baumannii ATCC 19606 assessed as induction of membrane-perturbation at MIC measured every minute for 120 mins by SYTOX green fluorescence dye influx assay; format: functional, organism-based; conditions: ATCC 19606 = CIP 70.34 = JCM 6841
MIC (Pseudomonas syringae) [µM],MIC (Pichia kudriavzevii) [µM],MIC (Acinetobacter baumannii [3]) [µM],MIC [4] [µM],MIC (Priestia megaterium) [µM],MIC (Staphylococcus aureus) [µM],MIC (Pseudomonas aeruginosa) [µM],MIC (Candida albicans [7]) [µM],MIC (Escherichia coli) [µM],Compound,Activity (HaCaT [1]) [%],Activity (HaCaT [2]) [%],Activity (HaCaT [5]),Activity (HaCaT [6]) [%],Activity [8],Activity (Candida albicans [9]),Activity (Acinetobacter baumannii [10])
6.25,3.12,6.25,3.12,3.12,3.12,50,3.12,25,"CCCC[C@H](NC(=O)[C@@H](CC(C)C)NC(=O)[C@H](Cc1ccccc1)NC(=O)[C@H](CCCCN)NC(=O)[C@H](CO)NC(=O)[C@H](Cc1ccccc1)NC(=O)[C@H](Cc1c[nH]c2ccccc12)NC(=O)[C@@H]1CCCN1C(=O)[C@@H](NC(=O)[C@@H](N)Cc1ccccc1)C(C)C)C(=O)N[C@@H](CCCNC(=N)N)C(=O)NC(C(=O)N[C@@H](CC(C)C)C(N)=O)[C@@H](C)CC (single isomer, unassigned)",99.76,65.86,Non-Toxic,12.25,–,–,–
12.5,1.56,6.25,3.12,1.56,3.12,50,1.56,25,CC[C@H](C)[C@H](NC(=O)[C@H](CCCNC(=N)N)NC(=O)[C@@H]1CCCN1C(=O)[C@@H](CC(C)C)NC(=O)[C@H](Cc1ccccc1)NC(=O)[C@H](CCCCN)NC(=O)[C@H](CO)NC(=O)[C@H](Cc1ccccc1)NC(=O)[C@H](Cc1c[nH]c2ccccc12)NC(=O)[C@@H]1CCCN1C(=O)[C@@H](NC(=O)[C@@H](N)Cc1ccccc1)C(C)C)C(=O)N[C@@H](CC(C)C)C(N)=O (H-FVPWFSKF[dL]PRIL-NH2),96.61,77.06,Non-Toxic,16.15,–,–,–
–,–,–,–,–,–,–,–,–,H-FVQWFSKFLGRIL-NH2,–,–,–,–,Active,Active,Active
> 50,3.12,25,50,3.12,> 50,> 50,3.12,25,CC[C@H](C)[C@H](NC(=O)[C@H](CCCNC(=N)N)NC(=O)[C@H]1C[C@@H](O)CN1C(=O)[C@@H](CC(C)C)NC(=O)[C@H](Cc1ccccc1)NC(=O)[C@H](CCCCN)NC(=O)[C@H](CO)NC(=O)[C@H](Cc1ccccc1)NC(=O)[C@H](Cc1c[nH]c2ccccc12)NC(=O)[C@@H]1CCCN1C(=O)[C@@H](NC(=O)[C@@H](N)Cc1ccccc1)C(C)C)C(=O)N[C@@H](CC(C)C)C(N)=O,0,0,Non-Toxic,0,–,–,–
50,3.12,50,25,3.12,> 50,> 50,3.12,50,CC[C@H](C)[C@H](NC(=O)[C@H](CCCNC(=N)N)NC(=O)[C@H]1CCCN1C(=O)[C@@H](CC(C)C)NC(=O)[C@H](Cc1ccccc1)NC(=O)[C@H](CCCCN)NC(=O)[C@H](CO)NC(=O)[C@H](Cc1ccccc1)NC(=O)[C@H](Cc1c[nH]c2ccccc12)NC(=O)[C@@H]1CCCN1C(=O)[C@@H](NC(=O)[C@@H](N)Cc1ccccc1)C(C)C)C(=O)N[C@@H](CC(C)C)C(N)=O (H-FVPWFSKF[dL][dP]RIL-NH2),0,0,Non-Toxic,0,–,–,–
1.56,6.25,3.12,1.56,1.56,1.56,> 50,6.25,> 50,CC[C@H](C)[C@H](NC(=O)[C@H](CCCNC(=N)N)NC(=O)C1(NC(=O)[C@@H](CC(C)C)NC(=O)[C@H](Cc2ccccc2)NC(=O)[C@H](CCCCN)NC(=O)[C@H](CO)NC(=O)[C@H](Cc2ccccc2)NC(=O)[C@H](Cc2c[nH]c3ccccc23)NC(=O)[C@@H]2CCCN2C(=O)[C@@H](NC(=O)[C@@H](N)Cc2ccccc2)C(C)C)Cc2ccccc2C1)C(=O)N[C@@H](CC(C)C)C(N)=O (H-FVPWFSKF[dL][Aic]RIL-NH2),92.84,88.72,Non-Toxic,45.54,–,–,–
12.5,1.56,6.25,6.25,1.56,6.25,50,3.12,25,CC[C@H](C)[C@H](NC(=O)[C@H](CCCNC(=N)N)NC(=O)[C@@H]1C[C@@H](O)CN1C(=O)[C@@H](CC(C)C)NC(=O)[C@H](Cc1ccccc1)NC(=O)[C@H](CCCCN)NC(=O)[C@H](CO)NC(=O)[C@H](Cc1ccccc1)NC(=O)[C@H](Cc1c[nH]c2ccccc12)NC(=O)[C@@H]1CCCN1C(=O)[C@@H](NC(=O)[C@@H](N)Cc1ccccc1)C(C)C)C(=O)N[C@@H](CC(C)C)C(N)=O,98.81,84.72,Non-Toxic,2.76,–,–,–

Compound,MIC (Pseudomonas syringae) [µM],MIC (Pichia kudriavzevii) [µM],MIC (Acinetobacter baumannii [3]) [µM],MIC [4] [µM],MIC (Priestia megaterium) [µM],MIC (Staphylococcus aureus) [µM],MIC (Pseudomonas aeruginosa) [µM],MIC (Candida albicans [7]) [µM],MIC (Escherichia coli) [µM],Activity (HaCaT [1]) [%],Activity (HaCaT [2]) [%],Activity (HaCaT [5]),Activity (HaCaT [6]) [%],Activity [8],Activity (Candida albicans [9]),Activity (Acinetobacter baumannii [10])
"CC[C@H](C)C(NC(=O)[C@H](CCCNC(=N)N)NC(=O)[C@H](CCCCN)NC(=O)[C@@H](CC(C)C)NC(=O)[C@H](Cc1ccccc1)NC(=O)[C@H](CCCCN)NC(=O)[C@H](CO)NC(=O)[C@H](Cc1ccccc1)NC(=O)[C@H](Cc1c[nH]c2ccccc12)NC(=O)[C@@H]1CCCN1C(=O)[C@@H](NC(=O)[C@@H](N)Cc1ccccc1)C(C)C)C(=O)N[C@@H](CC(C)C)C(N)=O (single isomer, unassigned)",6.25,1.56,3.12,3.12,3.12,6.25,12.5,1.56,12.5,96.79,66.86,Non-Toxic,49.3,–,–,–

# Source: ChEMBL document CHEMBL4130416, “Glycine-replaced derivatives of [Pro3,DLeu9]TL, a temporin L analogue: Evaluation of antimicrobial, cytotoxic and hemolytic activities” (Eur J Med Chem, 2017)
